Read-outs that look alike come from different tables or passages of the source.
Experiments:
Details in all cases: 10 ug/ml AMT, 200 mW/cm2 UV-A
[1] = tested on: WNV (CDC) M29539 (NY99-35262-11); test: AMT photo-inactivation of arbovirus: West Nile Virus; format: cell-based, West Nile Virus (WNV)
VEE TC 83 TVB 5215 = format: cell-based, Venezuelan Equine Encephalitis (VEE)
SLE TBH-28 CDC M29777 = test: AMT photo-inactivation of arbovirus: Saint Louis Encephalitis; format: cell-based, Saint Louis Encephalitis (SLE)
YF (FMD 1240) = format: cell-based, Yellow Fever (YF)

Compound: Cc1oc2c(C)c3oc(=O)cc(C)c3cc2c1CN.Cl [AMT, 4′-Aminomethyltrioxsalen hydrochloride]
- WNV (CDC) M29539 (NY99-35262-11) titer after AMT and UV-A ([1]; 0 minutes): 8.00E+04 PFU/ml
- WNV (CDC) M29539 (NY99-35262-11) titer after AMT and UV-A ([1]; 1 minute): 1.68E+04 PFU/ml
- WNV (CDC) M29539 (NY99-35262-11) titer after AMT and UV-A ([1]; 5 minutes): 5.00E+01 PFU/ml
- WNV (CDC) M29539 (NY99-35262-11) titer after AMT and UV-A ([1]; 10 minutes): 0 PFU/ml
- WNV (CDC) M29539 (NY99-35262-11) titer after AMT and UV-A ([1]; 20 minutes): 0 PFU/ml
- VEE TC 83 TVB 5215 titer after AMT and UV-A (VEE TC 83 TVB 5215; 0 minutes): 1.72E+09 PFU/ml
- VEE TC 83 TVB 5215 titer after AMT and UV-A (VEE TC 83 TVB 5215; 1 minute): 1.60E+08 PFU/ml
- VEE TC 83 TVB 5215 titer after AMT and UV-A (VEE TC 83 TVB 5215; 5 minutes): 4.80E+04 PFU/ml
- VEE TC 83 TVB 5215 titer after AMT and UV-A (VEE TC 83 TVB 5215; 10 minutes): 1.50E+02 PFU/ml
- VEE TC 83 TVB 5215 titer after AMT and UV-A (VEE TC 83 TVB 5215; 20 minutes): 0 PFU/ml
- SLE TBH-28 CDC M29777 titer after AMT and UV-A (SLE TBH-28 CDC M29777; 0 minutes): 3.20E+03 PFU/ml
- SLE TBH-28 CDC M29777 titer after AMT and UV-A (SLE TBH-28 CDC M29777; 1 minute): 8.00E+01 PFU/ml
- SLE TBH-28 CDC M29777 titer after AMT and UV-A (SLE TBH-28 CDC M29777; 5 minutes): 0 PFU/ml
- SLE TBH-28 CDC M29777 titer after AMT and UV-A (SLE TBH-28 CDC M29777; 10 minutes): 0 PFU/ml
- SLE TBH-28 CDC M29777 titer after AMT and UV-A (SLE TBH-28 CDC M29777; 20 minutes): 0 PFU/ml
- YF (FMD 1240) titer after AMT and UV-A (YF (FMD 1240); 0 minutes): 1.47E+05 PFU/ml
- YF (FMD 1240) titer after AMT and UV-A (YF (FMD 1240); 1 minute): 3.68E+04 PFU/ml
- YF (FMD 1240) titer after AMT and UV-A (YF (FMD 1240); 5 minutes): 9.00E+01 PFU/ml
- YF (FMD 1240) titer after AMT and UV-A (YF (FMD 1240); 10 minutes): 0 PFU/ml
- YF (FMD 1240) titer after AMT and UV-A (YF (FMD 1240); 20 minutes): 0 PFU/ml

From patent US9005633B2 (priority 2009, dated 2015)
